Measurements as given in PubChem BioAssay AID248 (DTP/NCI, 2004).
Where “and” joins values, the source holds several entries; their conditions need not be identical. Equal entries are not always repeated. Toxic doses and inconclusive results are not listed.

Tested on: L1210 leukemia ip in BDF1 mice, survival T/C
Test: NCI In Vivo Anticancer Drug Screen. Data for tumor model L1210 Leukemia (intraperitoneal) in B6D2F1 (BDF1) mice
Conditions: endpoint: mean survival time, higher = longer survival
Method in brief: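 Transplantable tumor model; survival measured in treated vs vehicle control mice. Value = treated/control.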

[1] = dose: 100.0 mg/kg/injection, schedule: Q01DX001 (ip), vehicle: saline
[2] = dose: 200.0 mg/kg/injection, schedule: Q01DX001 (ip), vehicle: saline
[3] = dose: 150.0 mg/kg/injection, schedule: Q01DX001 (ip), vehicle: carboxymethylcellulose (CMC)
[4] = dose: 100.0 mg/kg/injection, schedule: Q01DX001 (ip), vehicle: carboxymethylcellulose (CMC)
[5] = dose: 200.0 mg/kg/injection, schedule: Q01DX001 (ip), vehicle: carboxymethylcellulose (CMC)
[6] = dose: 400.0 mg/kg/injection, schedule: Q01DX001 (ip), vehicle: carboxymethylcellulose (CMC)
[7] = dose: 75.0 mg/kg/injection, schedule: Q01DX001 (ip), vehicle: saline
[8] = dose: 100.0 mg/kg/injection, schedule: Q01DX009 (ip), vehicle: Klucel (hydroxypropylcellulose) (HPC)
[9] = dose: 100.0 mg/kg/injection, schedule: Q04DX003 (ip), vehicle: Klucel (hydroxypropylcellulose) (HPC)
[10] = dose: 200.0 mg/kg/injection, schedule: Q01DX009 (ip), vehicle: Klucel (hydroxypropylcellulose) (HPC)
[11] = dose: 400.0 mg/kg/injection, schedule: Q01DX009 (ip), vehicle: Klucel (hydroxypropylcellulose) (HPC)
[12] = dose: 3.0 mg/kg/injection, schedule: Q01DX009 (ip), vehicle: carboxymethylcellulose (CMC)
[13] = dose: 6.0 mg/kg/injection, schedule: Q01DX009 (ip), vehicle: carboxymethylcellulose (CMC)
[14] = dose: 12.0 mg/kg/injection, schedule: Q01DX009 (ip), vehicle: carboxymethylcellulose (CMC)
[15] = dose: 50.0 mg/kg/injection, schedule: Q01DX009 (ip), vehicle: saline with Tween-80
[16] = dose: 100.0 mg/kg/injection, schedule: Q01DX009 (ip), vehicle: saline with Tween-80
[17] = dose: 200.0 mg/kg/injection, schedule: Q01DX009 (ip), vehicle: saline with Tween-80

In the case of `CCC[CH2][Sn]([CH2]CCC)([n]1cncn1)[n]1cncn1`, the T/C (dose: 3.13 mg/kg/injection, schedule: Q04DX003 (ip), vehicle: saline with Tween-80) is reported as 101 % of control, the T/C (dose: 6.25 mg/kg/injection, schedule: Q04DX002 (ip), vehicle: saline with Tween-80) is reported as 104 % of control and the T/C (dose: 6.25 mg/kg/injection, schedule: Q04DX003 (ip), vehicle: saline with Tween-80) is reported as 101 % of control. The T/C (dose: 12.5 mg/kg/injection, schedule: Q04DX002 (ip), vehicle: saline with Tween-80) was 104 % of control, the T/C (dose: 12.5 mg/kg/injection, schedule: Q04DX003 (ip), vehicle: saline with Tween-80) was 95 % of control and the T/C (dose: 25.0 mg/kg/injection, schedule: Q04DX002 (ip), vehicle: saline with Tween-80) was 93 % of control.
`Nc1ncnc2c1ncn2[C@H]1CC[C@@H](CO)C1` was tested, and the T/C [1] was 106 % of control and the T/C [2] was 97 % of control.
With `CC(C)CC1NC(=O)N(C)C1=O` (configuration not stated) the T/C (dose: 75.0 mg/kg/injection, schedule: Q01DX001 (ip), vehicle: carboxymethylcellulose (CMC)) was 95 % of control, the T/C [3] was 100 % of control and the T/C (dose: 300.0 mg/kg/injection, schedule: Q01DX001 (ip), vehicle: carboxymethylcellulose (CMC)) was 100 % of control.
In the case of `Nc1scc2[nH]c3ccccc3[n+]12`, the T/C (dose: 100.0 mg/kg/injection, schedule: Q04DX002 (ip), vehicle: saline) is reported as 100 % of control and the T/C (dose: 200.0 mg/kg/injection, schedule: Q04DX002 (ip), vehicle: saline) is reported as 104 % of control.
In the case of `ClC1=CCCCC1`, the T/C (dose: 25.0 mg/kg/injection, schedule: Q01DX009 (ip), vehicle: acetone) is reported as 95 % of control, the T/C (dose: 50.0 mg/kg/injection, schedule: Q01DX009 (ip), vehicle: acetone) is reported as 101 % of control and the T/C (dose: 100.0 mg/kg/injection, schedule: Q01DX009 (ip), vehicle: acetone) is reported as 100 % of control.
With `Cc1csc(NC(=O)C2C3CCC(O3)C2C(=O)O)n1` (configuration not stated) the T/C (dose: 5.0 mg/kg/injection, schedule: Q01DX001 (ip), vehicle: carboxymethylcellulose (CMC)) was 95 % of control and the T/C (dose: 10.0 mg/kg/injection, schedule: Q01DX001 (ip), vehicle: carboxymethylcellulose (CMC)) was 101 % of control.
With `CC(C)(C)CC1=C(O)c2ccccc2C(=O)C1=O` the T/C (dose: 50.0 mg/kg/injection, schedule: Q01DX001 (ip), vehicle: carboxymethylcellulose (CMC)) was 114 % of control, the T/C [4] was 111 % of control and the T/C [5] was 105 % of control. The T/C [6] was 100 % of control.
With `CC(C)=NNc1cccc2cccc(N)c12` the T/C [1] was 97 % of control, the T/C [2] was 95 % of control and the T/C (dose: 400.0 mg/kg/injection, schedule: Q01DX001 (ip), vehicle: saline) was 97 % of control.
`Nc1ncnc2c1nnn2CCCCC(N)C(=O)O` (configuration not stated) was tested, and the T/C (dose: 100.0 mg/kg/injection, schedule: Q04DX003 (ip), vehicle: saline) was 111 % of control, the T/C (dose: 200.0 mg/kg/injection, schedule: Q04DX003 (ip), vehicle: saline) was 106 % of control and the T/C (dose: 400.0 mg/kg/injection, schedule: Q04DX003 (ip), vehicle: saline) was 95 % of control.
For `CCC[CH2][Sn]([CH2]CCC)([O]S(C)(=O)=O)[O]S(C)(=O)=O`, the T/C (dose: 1.56 mg/kg/injection, schedule: Q01DX009 (ip), vehicle: Klucel (hydroxypropylcellulose) (HPC)) was 105 % of control and the T/C (dose: 3.12 mg/kg/injection, schedule: Q01DX009 (ip), vehicle: Klucel (hydroxypropylcellulose) (HPC)) was 105 % of control.
In the case of `C[N+](C)(C)C12CCCCC1S(=O)(=O)C2` (configuration not stated), the T/C [7] is reported as 108 % of control.
For `CC1(C)CC1(F)Cl` (configuration not stated), the T/C [4] was 103 % of control, the T/C [5] was 97 % of control and the T/C [6] was 101 % of control.
With `CCCCCCCCCCCCCCCCCCNC(=O)Nc1cccc(C)c1C` the T/C [8] was 92 % of control, the T/C [9] was 87 % of control and the T/C [10] was 89 % of control. The T/C (dose: 200.0 mg/kg/injection, schedule: Q04DX003 (ip), vehicle: Klucel (hydroxypropylcellulose) (HPC)) was 92 % of control, the T/C [11] was 94 % of control and the T/C (dose: 400.0 mg/kg/injection, schedule: Q04DX003 (ip), vehicle: Klucel (hydroxypropylcellulose) (HPC)) was 88 % of control.
`CCOC(CCc1c(-c2ccccc2)nc(NC(C)=O)[nH]c1=O)OCC` was tested, and the T/C [8] was 105 % of control, the T/C [10] was 100 % of control and the T/C [11] was 92 % of control.
In the case of `N#C/C(=C\c1cccn1Cc1ccc2ccccc2c1)C(N)=O`, the T/C (dose: 100.0 mg/kg/injection, schedule: Q04DX002 (ip), vehicle: saline with Tween-80) is reported as 104 % of control, the T/C (dose: 200.0 mg/kg/injection, schedule: Q04DX002 (ip), vehicle: saline with Tween-80) is reported as 96 % of control and the T/C (dose: 400.0 mg/kg/injection, schedule: Q04DX002 (ip), vehicle: saline with Tween-80) is reported as 93 % of control.
In the case of `S=c1nc[nH]c2nc[nH]c12.[Ag]`, the T/C [12] is reported as 106 % of control and 92 % of control, the T/C [13] is reported as 101 % of control and the T/C [14] is reported as 113 % of control. The T/C (dose: 50.0 mg/kg/injection, schedule: Q01DX009 (ip), vehicle: carboxymethylcellulose (CMC)) was 113 % of control and 119 % of control, the T/C (dose: 400.0 mg/kg/injection, schedule: Q01DX009 (ip), vehicle: carboxymethylcellulose (CMC)) was 101 % of control and the T/C (dose: 600.0 mg/kg/injection, schedule: Q01DX009 (ip), vehicle: carboxymethylcellulose (CMC)) was 154 % of control. For the same molecule, the T/C (dose: 800.0 mg/kg/injection, schedule: Q01DX009 (ip), vehicle: carboxymethylcellulose (CMC)) was 157 % of control and 159 % of control, the T/C (dose: 800.0 mg/kg/injection, schedule: Q01DX009 (ip), vehicle: saline) was 154 % of control and the T/C (dose: 1000.0 mg/kg/injection, schedule: Q01DX009 (ip), vehicle: carboxymethylcellulose (CMC)) was 119 % of control. The T/C (dose: 1000.0 mg/kg/injection, schedule: Q01DX009 (ip), vehicle: saline) was 154 % of control.
In the case of `COc1ccc(C)cc1NC(=O)OCCOc1ccc(NC(C)=O)cc1`, the T/C [15] is reported as 98 % of control, the T/C [16] is reported as 95 % of control and the T/C [17] is reported as 95 % of control.
`CCCCc1c(O)nc(NCCCC(N)C(=O)O)[nH]c1=O` (configuration not stated) was tested, and the T/C [7] was 93 % of control, the T/C (dose: 150.0 mg/kg/injection, schedule: Q01DX001 (ip), vehicle: saline) was 95 % of control and the T/C (dose: 300.0 mg/kg/injection, schedule: Q01DX001 (ip), vehicle: saline) was 96 % of control.
`COC(=O)c1ccccc1NC(=O)c1ccc(C(=O)Nc2ccccc2C(=O)OC)cc1` was tested, and the T/C [8] was 107 % of control, the T/C [10] was 92 % of control and the T/C [11] was 92 % of control.
In the case of `CCN(CC)CCCC(C)Nc1nnc2c(=O)n(C)c(=O)n(C)c2n1` (configuration not stated), the T/C (dose: 75.0 mg/kg/injection, schedule: Q04DX003 (ip), vehicle: saline) is reported as 89 % of control, the T/C (dose: 150.0 mg/kg/injection, schedule: Q04DX003 (ip), vehicle: saline) is reported as 90 % of control and the T/C (dose: 300.0 mg/kg/injection, schedule: Q04DX003 (ip), vehicle: saline) is reported as 87 % of control.
For `O=NN(CCCl)C(=O)Nc1ccc(Br)cn1`, the T/C [12] was 97 % of control, the T/C [13] was 103 % of control and the T/C (dose: 10.0 mg/kg/injection, schedule: Q01DX009 (ip), vehicle: carboxymethylcellulose (CMC)) was 186 % of control. The T/C [14] was 119 % of control, the T/C (dose: 15.0 mg/kg/injection, schedule: Q01DX009 (ip), vehicle: carboxymethylcellulose (CMC)) was 154 % of control and the T/C (dose: 22.5 mg/kg/injection, schedule: Q01DX009 (ip), vehicle: carboxymethylcellulose (CMC)) was 158 % of control. The T/C (dose: 29.0 mg/kg/injection, schedule: Q01DX009 (ip), vehicle: carboxymethylcellulose (CMC)) was 157 % of control, the T/C (dose: 66.0 mg/kg/injection, schedule: Q01DX001 (ip), vehicle: carboxymethylcellulose (CMC)) was 151 % of control and the T/C [4] was 150 % of control and 173 % of control. For the same molecule, the T/C [3] was 102 % of control and 109 % of control.
With `CCN(CC)CCOc1cc(C)ccc1C(C)C` the T/C (dose: 25.0 mg/kg/injection, schedule: Q01DX009 (ip), vehicle: saline with Tween-80) was 93 % of control, the T/C (dose: 50.0 mg/kg/injection, schedule: Q01DX009 (ip), vehicle: Klucel (hydroxypropylcellulose) (HPC)) was 102 % of control and the T/C [15] was 93 % of control. The T/C (dose: 50.0 mg/kg/injection, schedule: Q04DX003 (ip), vehicle: Klucel (hydroxypropylcellulose) (HPC)) was 100 % of control, the T/C (dose: 50.0 mg/kg/injection, schedule: Q04DX003 (ip), vehicle: saline with Tween-80) was 100 % of control and the T/C [1] was 98 % of control. For the same molecule, the T/C [8] was 103 % of control, the T/C [16] was 113 % of control and the T/C [9] was 96 % of control. The T/C (dose: 100.0 mg/kg/injection, schedule: Q04DX003 (ip), vehicle: saline with Tween-80) was 95 % of control and the T/C [2] was 113 % of control.
With `O=S(=O)(OC1CCCC1Cl)c1ccc(Br)cc1` (configuration not stated) the T/C [15] was 93 % of control, the T/C [16] was 93 % of control and the T/C [17] was 86 % of control.
